In publication PMC4527605 (ACS infectious diseases, 2015):
Values after ≈ are worked out from the molar mass of the structure shown.

What was measured:
[1] = system: inner mitochondrial membrane potential, Δψ; experiment: Mitochondrial membrane potential; format: cell-based, Trypanosoma brucei; conditions: PCF, oligomycin 2 μg/ml, Figure 4C
M. tuberculosis H37Rv [2] = experiment: M. tuberculosis H37Rv growth inhibition; format: cell-based, Mycobacterium tuberculosis; conditions: for MIC: Mycobacterium tuberculosis, H37RV, read-out: Mt = M. tuberculosis H37Rv, MIC, estimated visually from 2x serial dilutions
M. tuberculosis Erdman = M. tuberculosis Erdman growth inhibition; format: cell-based, Mycobacterium tuberculosis; conditions: estimated visually from 2x serial dilutions
M. smegmatis = M. smegmatis growth inhibition; format: cell-based, Mycobacterium smegmatis; conditions: Mycolicibacterium smegmatis, read-out: Ms = M. smegmatis, IC50
B. subtilis = B. subtilis growth inhibition; format: cell-based; conditions: Bacillus subtilis, read-out: Bs = B. subtilis, IC50
E. coli = E. coli growth inhibition; format: cell-based; conditions: Escherichia coli, read-out: Ec = E. coli, IC50
S. cerevisiae = S. cerevisiae growth inhibition; format: cell-based; conditions: Saccharomyces cerevisiae, read-out: Sc = S. cerevisiae, IC50
[3] = HEK293T cell growth inhibition; format: cell-based; conditions: human, HEK293T cells
[4] = HepG2 cell growth inhibition; format: cell-based; conditions: human, HepG2 cells
M. tuberculosis H37Rv [5] = conditions: cited from earlier work
Trypanosoma brucei = experiment: T. brucei 427

For `CC[C@H]1/C=C/C=C/C[C@@H](C)[C@H](O)[C@@](C)(O)C(=O)[C@@H](C)[C@H](O)[C@@H](C)C(=O)[C@@H](C)[C@H](O)[C@@H](C)/C=C/C(=O)O[C@@H]2[C@H](C)[C@H](CC1)O[C@]1(CC[C@H](C)[C@H](C[C@@H](C)O)O1)[C@H]2C` [oligomycin], the “effect on ADP phosphorylation by T. brucei mitochondria (Δψ decrease after ADP)” value [1] was “inhibited”.

For `CC(C)=CCC/C(C)=C/CNCCNC1C2CC3CC(C2)CC1C3` (centres unmarked) [compound 2, SQ109], the MIC (M. tuberculosis H37Rv [2]) was 0.1 to 0.5 µg/mL (≈ 0.303 to 1.51 µM), the “Mt = M. tuberculosis H37Rv, MIC” value (M. tuberculosis H37Rv [2]; estimated visually from 2x serial dilutions) was 0.15 µg/mL and the “MtE = M. tuberculosis Erdman, MIC” value (M. tuberculosis Erdman) was 0.50 µg/mL. For the same compound, the “MtE = M. tuberculosis Erdman, MIC” value (M. tuberculosis Erdman; listed as SQ109) was 0.1 to 0.5 µg/mL, the IC50 (M. smegmatis) was 3.1 µg/mL (≈ 9.38 µM) and the IC50 (B. subtilis) was 7.6 µg/mL (≈ 23 µM). For the same compound, the IC50 (E. coli) was 2.8 µg/mL (≈ 8.47 µM), the IC50 (S. cerevisiae) was 1.1 µg/mL (≈ 3.33 µM) and the CC50 [3] was 1.9 µg/mL (≈ 5.75 µM). For the same compound, the CC50 [4] was 1.2 µg/mL (≈ 3.63 µM), the “MIC against M. tuberculosis (previous work)” value (M. tuberculosis H37Rv [5]) was 0.15 µg/mL (≈ 0.454 µM) and the IC50 (Trypanosoma brucei; Trypanosoma brucei, 72 h, read-out: Tb = Trypanosoma brucei, IC50) was 0.078 ± 0.001 µg/mL (≈ 0.236 µM). The “SI = CC50(HEK293T)/IC50(Tb)” value (Trypanosoma brucei; selectivity index HEK293T vs T. brucei) was 24 and the “SI = CC50(HepG2)/IC50(Tb)” value (Trypanosoma brucei; selectivity index HepG2 vs T. brucei) was 15.

With `CC[C@@H](CO)NCCN[C@@H](CC)CO` [compound 1, ethambutol] the MIC (M. tuberculosis H37Rv [2]) was 2 µg/mL (≈ 9.79 µM) and the IC50 (M. smegmatis) was 1 µg/mL (≈ 4.89 µM).
